Patent US20160272645A1, “Heterocyclic Compounds and Methods of Use” (MEDIVATION TECHNOLOGIES, INC., priority 2013, published 2016)

What was measured:
Assay type in all cases: biochemical
BTK = molecular target: T1, BTK (Homo sapiens, UniProt Q06187); assay: BTK kinase profiling, HotSpot radiometric assay (Reaction Biology); conditions: for inhibition at 0.1 µM: compound 0.1 μM, read-out: BTK @ 0.1 μM (% Inh); for inhibition at 0.1 µM / inhibition at 1 µM / inhibition at 0.01 µM: ATP 10 μM; for inhibition at 1 µM: compound 1 μM, read-out: BTK @ 1 μM (% Inh); for inhibition at 0.01 µM: compound 0.01 μM, read-out: BTK @ 0.01 μM (% Inh)
T1 construct: purchased Reaction Biology Corporation
Protocol: (§1) Compounds of the invention were profiled in a 10 dose IC50 panel against BTK and PI3Kδ, both provided by Reaction Biology Corporation.
(§2) BTK assay: In vitro profiling protein kinases was performed using the “HotSpot” assay platform. Briefly, specific kinase/substrate pairs along with required cofactors were prepared in reaction buffer. Compounds were prepared as 10 mM stock solutions in DMSO. Compounds were delivered into the reaction, followed 15-20 minutes later by addition of a mixture of ATP (Sigma, St. Louis Mo.) and ^33P ATP (Perkin Elmer, Waltham Mass.) to a final concentration of 10 μM. Reactions were carried out at RT for 120 min, followed by spotting of the reactions onto P81 ion exchange filter paper (Whatman Inc., Piscataway, N.J.). Unbound phosphate was removed by extensive washing of filters in 0.75% Phosphoric acid. […] ICso values and curve fits were obtained using Prism (GraphPad Software). Buffer Conditions: 20 mM Hepes (pH 7.5), 10 mM MgCl2, 1 mM EGTA, 0.02% Brij35, 0.02 mg/mL BSA, 0.1 mM Na3VO4, 2 mM DTT, 1% DMSO.

PI3Kδ [1] = molecular target: T2, PI3Kδ (Homo sapiens, UniProt O00329); assay: PI3Kδ kinase profiling, HTRF PIP3 displacement assay (Reaction Biology); conditions: for inhibition at 1 µM: compound 1 μM, ATP 10 μM, read-out: PI3Kδ @ 1 μM (% Inh)
T2 construct: purchased Reaction Biology Corporation
Text: as §1
(§3) PI3Kδ assay: The PIP3 product is detected by displacement of biotin-PIP3 from an energy transfer complex consisting of Europium labeled anti-GST monoclonal antibody, a GST-tagged pleckstrin homology (PH) domain, biotinylated PIP3 and Streptavidin-Allophycocyanin (APC). Excitation of Europium in the complex results in an energy transfer to the APC and a fluorescent emission at 665 nm. The PIP3 product formed by PI3-Kinase (h) activity displaces biotin-PIP3 from the complex resulting in a loss of energy transfer and thus a decrease in signal. This is a 3-step reaction: First, the kinase reaction with PIP2 substrate is carried out in the presence of ATP (10 μM), and the reaction is quenched with stop Solution, and then finally detect by adding Detection Mixture followed by incubation (10 min). Reaction procedure: 1) Prepare substrate in freshly prepared Reaction Buffer. 2) Deliver kinase into the substrate solution and gently mix. 3) Deliver compounds in 100% DMSO (1 μM) into the kinase reaction mixture by Acoustic technology (Echo550; nanoliter range), incubate for 10 min at RT. 4) Deliver ATP into the reaction mixture to initiate the reaction. 5) Incubate for 30 min at 30° C. 6) Quench the reaction with Stop Solution. 7) Add Detection Mixture, and incubate for overnight. 8) Measure HTRF: Ex=320 nm, ratio of Em=615 nm and Em=665 nm. The emission ratio is converted into μM PIP3 production based on PIP3 standard curves. The nonlinear regression to obtain the standard curve and IC50 values are performed using Graphpad Prism software. Assay Buffer: HEPES 50 mM (pH7.0), NaN3 0.02%, BSA 0.01%, Orthovanadate 0.1 mM, 1% DMSO. Detection buffer: HEPES 10 mM (pH7.0), BSA 0.02%, KF 0.16 M, EDTA 4 mM. Substrate: 10 μM PIP2 substrate (PI(4,5)P2).

PI3Kα = molecular target: T3, PI3Kα (Homo sapiens, UniProt P42336); assay: PI3K isoform profiling, PI3Kα (PI3Kδ protocol); conditions: for inhibition at 0.3 µM: compound 0.3 μM, read-out: PI3Kα @ 0.3 μM (% Inh); for IC50: 10 dose IC50
T3 construct: purchased Reaction Biology Corporation
Text: as §3
(§4) Compounds of the invention were profiled in a 10 dose IC50 panel against PI3Kα, PI3Kβ, and PI3Kγ kinases, provided by Reaction Biology Corporation, applied to the PI3Kδ protocol provided in Example B1.

PI3Kβ = molecular target: T4, PI3Kβ (Homo sapiens, UniProt P42338); assay: PI3K isoform profiling, PI3Kβ (PI3Kδ protocol); conditions: for inhibition at 0.3 µM: compound 0.3 μM, read-out: PI3Kβ @ 0.3 μM (% Inh); for IC50: 10 dose IC50
T4 construct: purchased Reaction Biology Corporation
Text: as §3, §4

BMX/ETK = molecular target: T5, BMX/ETK (Homo sapiens, UniProt P51813); assay: BMX/ETK kinase profiling (BTK protocol); conditions: compound 0.3 μM; read-out: BMX/ETK @ 0.3 μM (% Inh)
T5 construct: purchased Reaction Biology Corporation
T5 sequence (P51813 1-675): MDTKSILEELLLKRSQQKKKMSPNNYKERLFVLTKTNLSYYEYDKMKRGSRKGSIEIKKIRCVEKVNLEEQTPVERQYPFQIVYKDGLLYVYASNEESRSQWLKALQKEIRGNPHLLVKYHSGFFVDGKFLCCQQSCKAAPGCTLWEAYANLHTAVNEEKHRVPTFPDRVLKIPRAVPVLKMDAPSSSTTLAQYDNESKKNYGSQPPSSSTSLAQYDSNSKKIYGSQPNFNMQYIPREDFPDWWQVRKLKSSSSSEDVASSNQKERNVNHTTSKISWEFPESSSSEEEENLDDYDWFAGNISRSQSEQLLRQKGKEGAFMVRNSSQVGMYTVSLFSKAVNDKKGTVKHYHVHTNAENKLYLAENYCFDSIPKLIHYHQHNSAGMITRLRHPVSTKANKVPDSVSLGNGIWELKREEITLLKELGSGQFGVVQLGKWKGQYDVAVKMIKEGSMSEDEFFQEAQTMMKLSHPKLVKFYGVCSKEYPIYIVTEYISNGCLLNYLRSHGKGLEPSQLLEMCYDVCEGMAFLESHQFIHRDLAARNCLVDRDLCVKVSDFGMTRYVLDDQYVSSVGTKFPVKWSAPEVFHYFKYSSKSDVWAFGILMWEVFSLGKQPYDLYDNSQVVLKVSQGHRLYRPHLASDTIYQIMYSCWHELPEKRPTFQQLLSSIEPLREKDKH
Protocol: as §2
Compounds of the invention were profiled in a 10 dose IC50 panel against BMX/ETK, ITK and TEC kinases, provided by Reaction Biology Corporation, applied to the BTK protocol provided in Example B1.

PI3Kδ [2] = molecular target: T2, PI3Kδ; assay: PI3Kδ kinase profiling, HTRF PIP3 displacement assay (Reaction Biology); conditions: ATP 10 μM; for inhibition at 0.1 µM: compound 0.1 μM, read-out: PI3Kδ @ 0.1 μM (% Inh); for inhibition at 0.01 µM: compound 0.01 μM, read-out: PI3Kδ @ 0.01 μM (% Inh)

T1 sequence (Q06187 whole entry): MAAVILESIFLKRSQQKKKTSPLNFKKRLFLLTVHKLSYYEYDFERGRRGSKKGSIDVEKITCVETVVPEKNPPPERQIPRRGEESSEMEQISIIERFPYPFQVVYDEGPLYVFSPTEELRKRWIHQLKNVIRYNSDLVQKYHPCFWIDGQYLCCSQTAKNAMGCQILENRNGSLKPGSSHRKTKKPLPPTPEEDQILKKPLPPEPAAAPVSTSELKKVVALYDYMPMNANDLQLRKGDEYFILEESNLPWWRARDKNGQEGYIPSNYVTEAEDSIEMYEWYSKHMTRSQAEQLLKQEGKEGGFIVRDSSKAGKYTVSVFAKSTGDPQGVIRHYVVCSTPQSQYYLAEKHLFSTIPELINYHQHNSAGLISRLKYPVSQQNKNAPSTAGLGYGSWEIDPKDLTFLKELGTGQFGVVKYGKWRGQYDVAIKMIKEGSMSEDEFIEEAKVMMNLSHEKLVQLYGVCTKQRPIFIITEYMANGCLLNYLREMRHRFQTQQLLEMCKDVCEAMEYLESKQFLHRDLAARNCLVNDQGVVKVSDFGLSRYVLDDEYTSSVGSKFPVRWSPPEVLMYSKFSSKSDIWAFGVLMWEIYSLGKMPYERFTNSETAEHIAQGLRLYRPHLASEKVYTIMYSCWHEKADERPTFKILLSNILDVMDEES
T4 sequence (P42338 whole entry, canonical isoform): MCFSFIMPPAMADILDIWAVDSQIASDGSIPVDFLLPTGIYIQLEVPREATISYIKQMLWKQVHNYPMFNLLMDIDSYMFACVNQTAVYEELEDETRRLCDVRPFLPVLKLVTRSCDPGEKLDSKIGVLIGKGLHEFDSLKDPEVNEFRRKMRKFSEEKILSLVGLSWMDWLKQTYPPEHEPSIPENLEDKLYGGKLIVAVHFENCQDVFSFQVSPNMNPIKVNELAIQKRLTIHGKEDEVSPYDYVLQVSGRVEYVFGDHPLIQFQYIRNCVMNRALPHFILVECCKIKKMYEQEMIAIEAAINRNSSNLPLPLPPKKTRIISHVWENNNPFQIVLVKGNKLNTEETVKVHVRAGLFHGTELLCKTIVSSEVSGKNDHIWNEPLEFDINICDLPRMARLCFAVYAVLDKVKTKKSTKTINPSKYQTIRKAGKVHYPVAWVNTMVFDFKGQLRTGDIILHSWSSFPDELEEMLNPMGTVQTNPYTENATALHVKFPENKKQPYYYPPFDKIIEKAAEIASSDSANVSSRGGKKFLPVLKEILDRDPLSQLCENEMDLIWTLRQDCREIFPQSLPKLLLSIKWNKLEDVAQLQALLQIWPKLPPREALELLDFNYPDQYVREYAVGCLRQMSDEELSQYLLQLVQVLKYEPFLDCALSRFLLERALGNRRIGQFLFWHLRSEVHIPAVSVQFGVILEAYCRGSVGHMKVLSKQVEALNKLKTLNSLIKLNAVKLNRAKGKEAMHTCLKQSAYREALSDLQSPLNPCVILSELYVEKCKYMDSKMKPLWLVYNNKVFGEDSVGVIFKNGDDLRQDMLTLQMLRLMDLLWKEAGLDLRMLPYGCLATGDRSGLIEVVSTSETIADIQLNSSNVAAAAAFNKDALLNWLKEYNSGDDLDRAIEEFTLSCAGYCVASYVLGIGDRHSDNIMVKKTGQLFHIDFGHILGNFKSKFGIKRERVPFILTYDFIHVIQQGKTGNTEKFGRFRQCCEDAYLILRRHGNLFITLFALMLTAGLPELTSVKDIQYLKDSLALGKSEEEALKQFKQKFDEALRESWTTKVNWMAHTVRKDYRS
T4 sequence (P27986 whole entry partner, canonical isoform): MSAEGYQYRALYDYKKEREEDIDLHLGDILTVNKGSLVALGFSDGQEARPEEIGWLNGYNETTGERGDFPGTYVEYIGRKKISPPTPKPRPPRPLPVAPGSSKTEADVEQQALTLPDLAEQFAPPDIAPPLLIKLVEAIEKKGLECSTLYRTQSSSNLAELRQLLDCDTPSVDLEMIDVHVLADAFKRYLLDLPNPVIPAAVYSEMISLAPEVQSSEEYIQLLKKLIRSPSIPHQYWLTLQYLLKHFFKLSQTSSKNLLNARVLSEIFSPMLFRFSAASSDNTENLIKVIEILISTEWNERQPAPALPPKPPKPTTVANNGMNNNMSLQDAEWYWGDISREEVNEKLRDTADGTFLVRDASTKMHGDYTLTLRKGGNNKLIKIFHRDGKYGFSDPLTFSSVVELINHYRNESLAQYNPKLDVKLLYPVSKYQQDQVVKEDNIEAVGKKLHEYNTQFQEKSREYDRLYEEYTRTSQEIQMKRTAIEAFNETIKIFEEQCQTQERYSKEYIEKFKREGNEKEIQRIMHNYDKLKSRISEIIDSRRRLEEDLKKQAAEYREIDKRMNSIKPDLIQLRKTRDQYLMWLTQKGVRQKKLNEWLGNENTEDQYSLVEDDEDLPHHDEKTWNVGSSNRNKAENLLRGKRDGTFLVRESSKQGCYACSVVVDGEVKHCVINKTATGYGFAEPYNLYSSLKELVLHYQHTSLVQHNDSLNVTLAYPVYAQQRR
T2 sequence (O00329 whole entry): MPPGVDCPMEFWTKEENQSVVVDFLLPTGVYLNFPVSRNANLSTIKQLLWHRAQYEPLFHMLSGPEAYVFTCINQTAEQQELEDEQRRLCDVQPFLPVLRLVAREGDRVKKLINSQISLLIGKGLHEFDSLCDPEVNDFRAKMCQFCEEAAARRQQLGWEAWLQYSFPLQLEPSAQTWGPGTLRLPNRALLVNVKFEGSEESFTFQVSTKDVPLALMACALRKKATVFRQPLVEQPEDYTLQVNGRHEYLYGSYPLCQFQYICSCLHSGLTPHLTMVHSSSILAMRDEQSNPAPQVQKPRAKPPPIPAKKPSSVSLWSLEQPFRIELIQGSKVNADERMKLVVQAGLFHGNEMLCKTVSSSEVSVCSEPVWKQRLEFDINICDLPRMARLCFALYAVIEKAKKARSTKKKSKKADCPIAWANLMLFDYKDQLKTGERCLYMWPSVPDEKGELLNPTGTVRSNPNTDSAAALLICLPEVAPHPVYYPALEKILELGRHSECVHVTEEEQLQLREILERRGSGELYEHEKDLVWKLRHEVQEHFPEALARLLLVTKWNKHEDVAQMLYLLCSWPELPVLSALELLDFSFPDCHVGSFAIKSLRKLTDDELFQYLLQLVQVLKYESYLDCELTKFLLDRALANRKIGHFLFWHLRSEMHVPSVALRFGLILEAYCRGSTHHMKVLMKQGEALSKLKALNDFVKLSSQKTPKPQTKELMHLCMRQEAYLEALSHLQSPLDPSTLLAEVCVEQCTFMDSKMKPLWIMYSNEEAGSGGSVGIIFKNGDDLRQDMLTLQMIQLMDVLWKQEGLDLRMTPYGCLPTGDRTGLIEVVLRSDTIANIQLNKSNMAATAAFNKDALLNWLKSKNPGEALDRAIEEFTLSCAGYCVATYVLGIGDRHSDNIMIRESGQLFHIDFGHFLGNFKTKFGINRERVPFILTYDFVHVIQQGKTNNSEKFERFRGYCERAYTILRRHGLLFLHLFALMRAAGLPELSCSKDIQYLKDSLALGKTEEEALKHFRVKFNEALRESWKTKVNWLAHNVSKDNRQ
T2 sequence (P27986 whole entry partner): as the sequence (P27986 whole entry partner, canonical isoform) above
T3 sequence (P42336 whole entry, canonical isoform): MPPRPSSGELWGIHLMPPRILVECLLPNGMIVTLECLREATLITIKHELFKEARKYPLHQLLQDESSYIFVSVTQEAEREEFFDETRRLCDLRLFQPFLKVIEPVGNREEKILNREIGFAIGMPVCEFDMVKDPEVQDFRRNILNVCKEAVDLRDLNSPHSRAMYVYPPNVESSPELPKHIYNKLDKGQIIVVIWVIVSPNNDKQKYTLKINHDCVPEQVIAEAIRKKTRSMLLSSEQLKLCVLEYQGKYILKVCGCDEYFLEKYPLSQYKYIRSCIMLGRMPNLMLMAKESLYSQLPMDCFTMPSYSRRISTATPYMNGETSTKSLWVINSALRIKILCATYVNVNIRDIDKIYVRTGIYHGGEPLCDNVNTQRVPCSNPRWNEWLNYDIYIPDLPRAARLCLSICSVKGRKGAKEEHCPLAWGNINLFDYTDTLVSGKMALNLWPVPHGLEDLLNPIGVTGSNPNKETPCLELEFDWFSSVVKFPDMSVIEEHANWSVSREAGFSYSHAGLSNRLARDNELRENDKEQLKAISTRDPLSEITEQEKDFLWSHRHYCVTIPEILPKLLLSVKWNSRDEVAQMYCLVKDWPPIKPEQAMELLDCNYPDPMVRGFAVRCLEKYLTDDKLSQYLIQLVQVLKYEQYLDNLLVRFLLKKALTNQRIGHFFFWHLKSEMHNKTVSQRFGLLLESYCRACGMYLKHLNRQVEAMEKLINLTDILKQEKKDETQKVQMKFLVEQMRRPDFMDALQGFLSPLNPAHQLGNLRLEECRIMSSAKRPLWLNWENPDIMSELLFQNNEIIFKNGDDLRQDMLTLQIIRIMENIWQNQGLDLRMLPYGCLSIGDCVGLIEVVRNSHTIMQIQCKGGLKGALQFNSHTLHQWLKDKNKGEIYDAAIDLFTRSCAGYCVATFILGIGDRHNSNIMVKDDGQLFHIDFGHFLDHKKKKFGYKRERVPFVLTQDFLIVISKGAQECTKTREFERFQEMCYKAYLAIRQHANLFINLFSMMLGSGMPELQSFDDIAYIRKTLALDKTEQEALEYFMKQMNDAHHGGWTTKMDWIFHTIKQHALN
T3 sequence (P27986 whole entry partner, canonical isoform): as the sequence (P27986 whole entry partner, canonical isoform) above

Structure (SMILES)	IC50 (BTK) [nM]	IC50 (PI3Kδ [1]) [nM]	inhibition at 0.3 µM (PI3Kα) [%]	inhibition at 0.3 µM (PI3Kβ) [%]	inhibition at 0.3 µM (BMX/ETK) [%]	inhibition at 0.1 µM (BTK) [%]	IC50 (PI3Kα) [nM]	IC50 (PI3Kβ) [nM]	inhibition at 0.1 µM (PI3Kδ [2]) [%]	inhibition at 1 µM (BTK) [%]	inhibition at 1 µM (PI3Kδ [1]) [%]	inhibition at 0.01 µM (BTK) [%]	inhibition at 0.01 µM (PI3Kδ [2]) [%]
Nc1ncnc2c1c(-c1cc(O)cc(F)c1)nn2CCNc1ccccc1 [Compound 1, 3-(4-amino-1-(2-(phenylamino)ethyl)-1H-pyrazolo [3,4-d]pyrimidin-3-yl)-5-fluorophenol]	167	10	50.5	62	43.5	–	–	–	–	–	–	–	–
C=CC(=O)N(CCn1nc(-c2cc(O)cc(F)c2)c2c(N)ncnc21)c1ccccc1 [Compound 2, N-(2-(4-amino-3-(3-fluoro-5-hydroxyphenyl)-1H-pyrazolo[3,4-d]pyrimidin-1-yl)ethyl)-N-phenylacrylamide]	3.9	51.6	20.1	30.4	98.5	94.1	4210	5280	39.1	–	–	–	–
C=CC(=O)N(CCn1nc(-c2cc(O)cc(F)c2)c2c(N)ncnc21)Cc1ccc(F)cc1 [Compound 10, N-{2-[4-amino-3-(3-fluoro-5-hydroxyphenyl)-1H-pyrazolo [3,4-d]pyrimidin-1-yl]ethyl}-N-[(4-fluorophenyl)methyl]prop-2-enamide]	3	12.8	–	16.3	93	95.4	504	–	67.2	98.3	89	–	–
C=CC(=O)N(CCn1nc(-c2cc(O)cc(F)c2)c2c(N)ncnc21)Cc1ccc(Cl)cc1 [Compound 12, N-{2-[4-amino-3-(3-fluoro-5-hydroxyphenyl)-1H-pyrazolo[3,4-d]pyrimidin-1-yl]ethyl}-N-[(4-chlorophenyl)methyl]prop-2-enamide]	0.4	9.7	–	31.3	94.2	94.4	869	–	66.7	–	–	62.8	37.7
C=CC(=O)N(CCn1nc(-c2cc(O)c(F)c(F)c2)c2c(N)ncnc21)Cc1ccc(Cl)cc1 [Compound 16, N-{2-[4-amino-3-(3,4-difluoro-5-hydroxyphenyl)-1H-pyrazolo[3,4-d]pyrimidin-1-yl]ethyl}-N-[(4-chlorophenyl)methyl]prop-2-enamide]	2.7	12.4	–	25.2	97.2	93.8	290	–	73	–	–	63.4	48.3

Now from value to compound:

IC50 (BTK) [nM]	IC50 (PI3Kδ [1]) [nM]	inhibition at 0.3 µM (PI3Kα) [%]	inhibition at 0.3 µM (PI3Kβ) [%]	inhibition at 0.3 µM (BMX/ETK) [%]	inhibition at 0.1 µM (BTK) [%]	IC50 (PI3Kα) [nM]	IC50 (PI3Kβ) [nM]	inhibition at 0.1 µM (PI3Kδ [2]) [%]	inhibition at 1 µM (BTK) [%]	inhibition at 1 µM (PI3Kδ [1]) [%]	inhibition at 0.01 µM (BTK) [%]	inhibition at 0.01 µM (PI3Kδ [2]) [%]	Structure (SMILES)
3.7	13	26.4	45.8	92.5	94	3320	3410	70.3	–	–	–	–	C=CC(=O)N(CCn1nc(-c2cc(O)cc(F)c2)c2c(N)ncnc21)Cc1ccccc1 [Compound 5, N-(2-(4-amino-3-(3-fluoro-5-hydroxyphenyl)-1H-pyrazolo[3,4-d]pyrimidin-1-yl)ethyl)-N-benzylacrylamide]
7.4	32	–	41	93.5	93.8	3220	–	54.2	97.2	82.4	–	–	C=CC(=O)N(CCn1nc(-c2cc(O)cc(F)c2)c2c(N)ncnc21)Cc1ccccc1F [Compound 11, N-[2-[4-amino-3-(3-fluoro-5-hydroxy-phenyl)pyrazolo[3,4-d]pyrimidin-1-yl]ethyl]-N-[(2-fluorophenyl)methyl]prop-2-enamide]
